US20070212360A1, “Modulation of mitochondrial oxygen consumption for therapeutic purposes” (priority 2006, published 2007)

Columns and labels:
[1] = test system: RKO and RKOShHIF1α 5×HRE-luciferase reporter tumors; test: Bioluminescent imaging of HRE-luciferase reporter tumors in vivo; design: species or system mouse; details: twelve hours after single dose 60 mg/kg tirapazamine ip
Protocol: FIG. 8. Increasing oxygen consumption by inhibition of PDK activity increases tumor hypoxia. (a) Luciferase activity of wildtype and HIF1α knockdown RKO cells stably transfected with a HIF1 responsive luciferase reporter gene. Cells were exposed to 0.5% O2 for 24 hours in triplicate. Luminescence is normalized to normoxic HIF wildtype cells. (b) Luciferase activity of wildtype RKO HIF1 reporter cells exposed to 0.5% O2 for 24 hours in the presence of increasing concentrations of echinomycin. Data are normalized to the increase in signal observed in the absence of drug. (c) Bioluminescent imaging in vivo. Images show a representative animal bearing an RKO reporter tumor on the left flank and an RKOShHIF1α reporter tumor on the right flank as a function of time after ip injection of 50 mg/kg DCA. […] (d) Quantification of in vivo bioluminescence. […] The data represent the mean of three independent experiments, each comprising 5 RKO and 5 RKOShHIF1α reporter tumors.
FIG. 14. Luciferase activity of hypoxia reporter tumors in response to tirapazamine. Mice bearing 500 mm^3 RKO HRE-luciferase tumors were imaged using an IVIS100 bioluminescent imaging system, and the signal from each tumor was quantified. […]
Bioluminescent imaging. […] After 10 min, bioluminescence was measured in a Xenogen IVIS100 imaging system (Xenogen). Data was quantified by measuring total photons/s from uniform regions of interest. […]

[2] = test system: HIFwt and HIFko MEFs; test: Tirapazamine toxicity by colony formation (clonogenic viability); assay type: cell-based, mouse
Protocol: FIG. 6. HIF dependent decrease in oxygen consumption raises intracellular oxygen concentration, protects when oxygen is limiting, and decreases sensitivity to tirapazamine in vitro. A: Pimonidazole was used to determine the intracellular oxygen concentration of cells in culture. HIFwt and HIFko MEFs were grown at high density and exposed to 2% O2 or anoxia for 24 h in glass dishes. For the last 4 hours of treatment, cells were exposed to 60 μg/ml pimonidazole. Pimonidazole binding was quantitated by flow cytometry after binding of an FITC conjugated anti-pimo mAb. Results are representative of two independent experiments. B: HIF1α reduces oxygen consumption and protects cells when total oxygen is limited. HIFwt and HIFko cells were plated at high density and sealed in aluminum jigs at <0.02% oxygen. At the indicated times, cells were harvested and dead cells were quantitated by trypan blue exclusion. […] C. PDK1 is responsible for HIF-1's adaptive response when oxygen is limiting. A similar jig experiment was performed to measure survival in the parental RKO, the RKO ShRNAHIF1α and the RKOShPDK1 cells. Cell death by trypan blue uptake was measured 48 h after the jigs were sealed. D: HIF status alters sensitivity to TPZ in vitro. HIFwt and HIFko MEFs were grown at high density in glass dishes and exposed to 21%, 2%, and <0.01% O2 conditions for 18 hours in the presence of varying concentrations of Tirapazamine. After exposure, cells were harvested, and replated under normoxia to determine clonogenic viability. Survival is calculated relative to the plating efficiency of cells exposed to 0 μM TPZ for each oxygen concentration. Error bars represent the standard error of the mean. E: Cell density alters sensitivity to TPZ. HIFwt and HIFko MEFs were grown at varying cell densities in glass dishes and exposed to 2% O2 in the presence of 10 μM TPZ for 24 h. After the exposure, survival was determined as described in […].
Cell lines and cell culture. Primary human fibroblasts have been described previously (Denko et al., 2003; Kim et al., 1997) and RKO human colon carcinoma cells were obtained from the American Type Culture Collection (ATCC, Manassas, Va.). RCC4, RCC4/VHL, and RCC4/Y98H human renal cell carcinoma cell lines have also been described previously (Chan et al., 2005). Wildtype and HIF-1α knockout mouse embryo fibroblasts (MEFs) were a gift from Dr. R Johnson (University of California, San Diego). All cells were grown in vitro as monolayers in Dulbeco's Modified Eagle's Media (DMEM) supplemented with 10% fetal bovine serum (FBS). For treatment with moderate hypoxia, cell culture dishes were placed into an Invivo2 humidified hypoxia workstation (Ruskinn Technologies, Bridgend, UK) at the indicated oxygen concentrations. Severe hypoxia was generated in an anaerobic workstation with a palladium catalyst (Sheldon Co., Cornelius, Oreg.). Tirapazamine toxicity was measured in cells plated overnight at the indicated density in glass dishes. The next day, fresh media was added containing the indicated concentration of TPZ, and the cells placed in the indicated oxygen environment. 24 hours later, the cells were trypsinized, counted, and plated for colony formation in normoxia.
Because HIF-1 can help cells adapt to hypoxia and maintain some intracellular oxygen level, it may also protect tumor cells from killing by the hypoxic cytotoxin tirapazamine (TPZ). TPZ toxicity is very oxygen dependent, especially at oxygen levels between 1-4% (Koch, 1993). We therefore tested the relative sensitivity of the HIFwt and HIFko cells to TPZ killing in high density cultures (FIG. 6d). We exposed the cells to the indicated concentrations of drug and oxygen concentrations overnight. The cells were then harvested and replated to determine reproductive viability by colony formation. […] The lower oxygen level is significant enough to dramatically sensitize these cells to killing by TPZ.

[3] = test system: experimental tumors; details: literature reference (28); cited from earlier work
[4] = test system: primary human or immortalized mouse fibroblasts; test: Oxygen consumption of fibroblast suspensions (Clark electrode); assay type: cell-based
Protocol: FIG. 1. Hypoxia inhibits mitochondrial oxygen consumption. A: Oxygen concentration curves generated using a Clark electrode for fibroblast suspensions from cultures exposed to normoxia or hypoxia for 24 h. Arrows indicate addition of the mitochondrial uncoupler CCCP and cytochrome poison cyanide. The slope of the curve is a measure of the rate of oxygen consumption. B: Average oxygen consumption rates in normal human fibroblasts and immortalized murine fibroblasts cultured in normoxia or 0.5% O2 for 24 h. C: Fraction of total oxygen consumption due to mitochondrial versus non-mitochondrial consumption in wild-type murine fibroblasts. Mitochondrial consumption was determined using 1 ug/ml of the cell permeable complex 3 inhibitor Antimycin A. D: Change in oxygen consumption in RKO cells after exposure to the indicated time in 0.5% O2, and time to recovery in normoxia following 24 h hypoxia. For all graphs, the error bars represent the standard error of the mean.
Oxygen consumption measurements. […] Oxygen consumption was measured in a 0.5 ml volume using an Oxytherm electrode unit (Hansatech, Norfolk, UK). […]
HIF-1 downregulates mitochondrial oxygen consumption. Having identified several putative HIF-1 responsive gene products that had the potential to regulate mitochondrial function, we then directly measured mitochondrial oxygen consumption in cells exposed to long term hypoxia. […]

Compound | reduction of luciferase signal of HRE-reporter tumors [1] | cell-density effect on TPZ toxicity in HIFko cells ([2]; 2% O2, 10 μM TPZ, 24 h, HIFko) | cell-density effect on TPZ toxicity in HIFwt cells ([2]; 2% O2, 10 μM TPZ, 24 h, HIFwt, highest density cultures) | effect of increased cell density on TPZ toxicity ([2]; 2% O2, 10 μM TPZ, 24 h, varying cell densities) | sensitivity of HIF-null cells to the drug relative to wild type cells ([2]; 2% oxygen, high density cultures, overnight) | sensitivity to TPZ killing (colony formation), HIFwt vs HIFko ([2]; 21% oxygen, high density cultures, overnight) | sensitivity to TPZ killing (colony formation), HIFwt vs HIFko ([2]; anoxic conditions, high density cultures, overnight) | reduction of the hypoxic fraction of experimental tumors [3] | effect on total cellular oxygen consumption ([4]; fibroblast suspensions from normoxic and hypoxic (24 h) cultures, mitochondrial uncoupler) | effect on oxygen consumption in hypoxia treated cells ([4]; hypoxia treated cells)
Nc1n[n+]([O-])c2ccccc2[n+]1[O-] [tirapazamine] | 90% | much more pronounced | some increased toxicity | increased TPZ toxicity | significantly greater sensitivity | equally resistant | equally sensitive | greater than 10 fold |  | 
N#CC(C#N)=NNc1cccc(Cl)c1 [CCCP, carbonyl cyanide 3-chloro phenylhydrazone] |  |  |  |  |  |  |  |  | stimulated | increase oxygen consumption
